Reference: US10632227B2, “Method of making injectable cements” (Wayne State University, priority 2015, dated 2020)

System: S. aureus
Test: modified MIC assay, bactericidal activity of eluents from CPP mix cements
Format: cell-based
Settings: EM eluted from cement or gel
Method: A modified minimum inhibitory concentration (MIC) assay was developed to measure the bactericidal activity of erythromycin eluted from the CPP mix cements. Briefly, a Mueller-Hinton broth inoculated with S. aureus […] was cultured at about 37° C. until an absorbance reading of about 0.08 to about 0.1 was attained at 625 nm, corresponding to roughly 1-2×10^8 CFU/ml. Then about 200 μl of eluents from CPP mix cements collected at various time points was added into about 800 μL of the bacterial broth and incubation continued at about 37° C. for about 6 hours, followed by OD measurement at about 625 nm. The MIC was determined by the lowest concentration that inhibited the growth of bacterium as characterized by a lack of turbidity and lower OD readings. Bacterial culture in Mueller Hinton broth without erythromycin was included as a positive control. Bactericidal activity assays were conducted in duplicate for both the blank and testing samples.

**Q.** With `CC[C@H]1OC(=O)[C@H](C)[C@@H](O[C@H]2C[C@@](C)(OC)[C@@H](O)[C@H](C)O2)[C@H](C)[C@@H](O[C@@H]2O[C@H](C)C[C@H](N(C)C)[C@H]2O)[C@](C)(O)C[C@@H](C)C(=O)[C@H](C)[C@@H](O)[C@]1(C)O` [EM, erythromycin] as the compound, how does the “bactericidal activity / stability of eluted EM” value read?
**A.** Its value is “stable and active”.
